{"source": "patent US11679102B2", "about": "“Method for inhibiting virus infection and replication” (Chang Gung University, priority 2020, dated 2023)", "key": {"[1]": {"tested_on": "RD-sgACSL4^+/+ and RD-sgACSL4^−/− cells", "assay": "Lipid peroxidation (BODIPY 581/591-C11) in RSL3-treated RD-sgACSL4+/+ control and RD-sgACSL4−/− knockout cells", "conditions": "1 μM RSL3, 36 hours, FIG. 9 upper panel", "method": "Specifically, the RD-sgACSL4^−/− knockout and RD-sgACSL4^+/+ control cells were seeded in 12-well plates at a concentration of 1×10^5 cells per well.\n(§1) Next, the treated cells and the infected cells were stained by incubating with 1 μM BODIPY™ 581/591-C11 (Invitrogen) at 37° C. for 30 minutes, and then collected using trypsin (Gibco). Thereafter, the stained cells were subjected to centrifugation at 300 g for 10 minutes to remove trypsin and the cell culture media, and then resuspended in 500 μL of fresh PBS. Subsequently, at least 10000 cells per sample were subjected to flow cytometry analysis using Attune NxT flow cytometer (Invitrogen), and FlowJo software was used for viewing and analyzing the thus obtained data. The BODIPY™ 581/591-C11 levels in the control groups (i.e., DMSO-treated cells and mock-infected cells) were set as 100%."}, "RD cells": {"tested_on": "RD cells", "assay": "Lipid peroxidation (BODIPY 581/591-C11, flow cytometry) in RSL3-treated RD cells pretreated with ferroptosis inhibitors", "method": "as §1\nWild-type RD cells were seeded in 12-well plates at a concentration of 1×10^5 cells per well. […] Subsequently, the pretreated cells were treated with 1 μM of RSL3 for 36 hours, or the same amount of DMSO serving as control group for comparison purpose.\nThereafter, these cells were subjected to staining with BODIPY™ 581/591-C11 (Invitrogen) and flow cytometry analysis according to the experimental procedures as described in the preceding sub-section, entitled “A. Determining lipid peroxidation level in virus-infected cells,” of this Example. The BODIPY™ 581/591-C11 levels in the control groups (i.e., DMSO-treated cells and mock-infected cells) were set as 100%."}, "CV-A6-infected RD cells": {"tested_on": "CV-A6-infected RD cells", "assay_type": "cell-based, human", "conditions": "wild-type RD cells pretreated 1 hour with ferrostatin-1 100 μM or troglitazone 20 μM, then CV-A6 m.o.i. 0.01 for 36 hours; vs mock-infected; FIG. 11 lower panel"}, "CV-A6 [2]": {"tested_on": "CV-A6", "assay_type": "cell-based, Coxsackie virus A6", "conditions": "pretreated 1 hour at 0-120 μM, CV-A6 m.o.i. 0.01, 36 h.p.i.; FIG. 12"}, "HCoV-229E [3]": {"tested_on": "HCoV-229E", "assay": "Cell viability of HCoV-229E-infected LLC-MK2 cells (CellTiter96 Aqueous One Solution)", "assay_type": "cell-based, human coronavirus 229E", "conditions": "pretreated 1 hour at 0-120 μM, HCoV-229E m.o.i. 0.01, 7 d.p.i.; FIG. 13", "procedure": "Wild-type RD cells and LLC-MK2 cells were seeded at a concentration of 2000 cells per well into respective wells of 96-well plates containing DMEM and 10% FBS. […] Mock-infected RD and LLC-MK2 cells served as control groups. CV-A6-infected and mock-infected RD cells, and HCoV-229E-infected and mock-infected LLC-MK2 cells were subjected to cell viability determination using CellTiter96 Aqueous One Solution Cell Proliferation Assay (Promega)."}, "CV-A6 [4]": {"tested_on": "CV-A6", "assay_type": "cell-based, Coxsackie virus A6", "conditions": "pretreated 1 hour with ferrostatin-1 100 μM or troglitazone 20 μM; m.o.i. 0.01; 24, 36, 48 h.p.i.; FIG. 14"}, "HCoV-229E [5]": {"tested_on": "HCoV-229E", "assay": "Virus titer of HCoV-229E in infected LLC-MK2 cells (viral plaque assay)", "conditions": "pretreated 1 hour with ferrostatin-1 40 μM or troglitazone 10 μM; m.o.i. 0.01; 1, 2, 3 d.p.i.; FIG. 15 upper panel"}, "HCoV-OC43": {"tested_on": "HCoV-OC43", "assay": "Virus titer of HCoV-OC43 in infected Vero E6 cells (viral plaque assay)", "conditions": "pretreated 1 hour with ferrostatin-1 40 μM or troglitazone 10 μM; m.o.i. 0.01; 1, 2, 3 d.p.i.; FIG. 15 lower panel"}}, "data": [{"molecule": "COC(=O)c1ccc([C@@H]2c3[nH]c4ccccc4c3C[C@@H](C(=O)OC)N2C(=O)CCl)cc1", "note": "[RSL3]", "values": [{"measurement": "Induction of lipid peroxidation in cells with normal ACSL4 expression", "setting": "[1]; RD-sgACSL4^+/+ control cells", "value": "effectively induce lipid peroxidation"}, {"measurement": "Induction of lipid peroxidation in ACSL4 knockout cells", "setting": "[1]; RD-sgACSL4^−/− knockout cells", "value": "unable to induce lipid peroxidation"}, {"measurement": "Lipid peroxidation level in RSL3-treated cells compared with DMSO-treated cells", "setting": "RD cells; wild-type RD cells, 1 μM RSL3, 36 hours, FIG. 11", "value": "significant increase"}]}, {"molecule": "CCOC(=O)c1ccc(NC2CCCCC2)c(N)c1", "note": "[ferrostatin-1]", "values": [{"measurement": "CV-A6-induced increase in lipid peroxidation level (relative BODIPY 581/591-C11 level)", "setting": "CV-A6-infected RD cells", "value": "significantly diminished"}, {"measurement": "Cell viability of CV-A6-infected RD cells", "setting": "CV-A6 [2]", "value": "increasing cell viability"}, {"measurement": "Cell viability of HCoV-229E-infected LLC-MK2 cells", "setting": "HCoV-229E [3]", "value": "increasing cell viability"}, {"measurement": "Viral yields (virus titer) of CV-A6 in infected RD cells vs DMSO control group", "setting": "CV-A6 [4]", "value": "significantly lower"}, {"measurement": "Viral yields (virus titer) of HCoV-229E in infected LLC-MK2 cells vs DMSO control group", "setting": "HCoV-229E [5]", "value": "significantly lower"}, {"measurement": "Viral yields (virus titer) of HCoV-OC43 in infected Vero E6 cells vs DMSO control group", "setting": "HCoV-OC43", "value": "significantly lower"}, {"measurement": "RSL3-induced increase in lipid peroxidation level (relative BODIPY 581/591-C11 level)", "setting": "RD cells; wild-type RD cells pretreated 1 hour with ferrostatin-1 100 μM or troglitazone 20 μM, then 1 μM RSL3 for 36 hours, vs DMSO control, FIG. 11 upper panel", "value": "significantly diminished"}]}]}
